Measurements reported in patent US8889650B2, “Antimelancholic medicine prepared with jujube camp materials” (Beijing Wonner Biotech, Ltd. Co., priority 2007, dated 2014).

Tests used:
[1] = test system: ICR mice; experiment: Mouse tail-hanging experiment; type: in vivo
Description: Experiment 1: The Influence of Embodiment 3 in the Mouse Tail-Hanging Experiment 1.1 Experimental animals: ICR mice, male, 22.0±2 g of body weight, secondary, were provided by the Experimental Animal Science Department of Capital Medical University, Beijing. 1.2 Experiment pharmaceuticals: The pharmaceutical of Embodiment 3 was provided by Beijing Wonner Biotech. Ltd. Co., and Paroxetine (Paxil) was the product of Zhong Mei Tianjin Smith Kline pharmaceuticals Co. Ltd. 1.4 Dose designs: 1. High dose of Embodiment 3 (5 mg/kg/d); 2. middle dose of Embodiment 3 (2.5 mg/kg/d); and 3. low dose of Embodiment 3 (1.25 mg/kg/d). 1.5.1 Group division and administration of drug: The mice were grouped randomly, with 10 mice per group. 1. High dose of Embodiment 3 (5 mg/kg, per oral (P.O.), administered for 7 days); 2. middle dose of Embodiment 3 (2.5 mg/kg, P.O., administered for 7 days); 3. low dose of Embodiment 3 (1.25 mg/kg, P.O., administered for 7 days); 4. Paroxetine (3 mg/kg, P.O., administered for 7 days); and 5. physiological saline (P.O.). After 1 hour of the last drug administration, the mouse tail-hanging experiment was proceeded. […] The time of non-movement of the mouse for the last 5 minutes was recorded. 1.5.3 Statistic calculation: The experimental data are represented as X±SD , and the experimental result was calculated as analysis of variance (ANOVA) by SPSS 11.5 statistic software.

[2] = test system: ICR mice; experiment: Mouse swimming by compulsion experiment; type: in vivo
Description: Experiment 2: The Influence of Embodiment 3 in the Mouse Swimming by Compulsion Experiment 2.1 Experimental animals: ICR mice, male, 22.0±2 g body weight, secondary, were provided by the Experimental Animal Science Department of Capital Medical University, Beijing. 2.2 Experiment pharmaceuticals: The pharmaceutical of Embodiment 3 was provided by Beijing Wonner Biotech. Ltd. Co., and Paroxetine (Paxil) was the product of Zhong Mei Tianjin Smith Kline pharmaceuticals Co. Ltd. 2.4 Dose designs: 1. High dose of Embodiment 3 (5 mg/kg/d); 2. middle dose of Embodiment 3 (2.5 mg/kg/d); and 3. low dose of Embodiment 3 (1.25 mg/kg/d). 2.5.1 Group division and administration of drug: The mice were grouped randomly, with 10 mice per group. 1. High dose of Embodiment 3 (5 mg/kg, P.O., administered for 7 days); 2. middle dose of Embodiment 3 (2.5 mg/kg, P.O., administered for 7 days); 3. low dose of Embodiment 3 (1.25 mg/kg, P.O., administered for 7 days); 4. Paroxetine (3 mg/kg, P.O., administered for 7 days); and 5. physiological saline (P.O.). […] The accumulative time of non-movement of the mouse in the water for the last 5 minutes was recorded. 2.5.3 Statistic calculation: The experimental data are represented as X±SD, and the experimental result was calculated as ANOVA by SPSS 11.5 statistic software.

For `Fc1ccc([C@@H]2CCNC[C@H]2COc2ccc3c(c2)OCO3)cc1` [Paroxetine], the Time of non-movement ([1]; Paroxetine 3 mg/kg P.O. for 7 days, tail hung 6 min, last 5 min recorded, 1 hour after last administration, X±SD) was 67.59 ± 39.09 s, the “Effect on time of non-movement after the mouse's tail was hung (conclusion)” value ([1]; high and middle doses of Embodiment 3, Paroxetine, significant in comparison with the physiological saline control) was “decreased the time of non-movement” and the “Effect on time of non-movement in the mouse swimming by compulsion test (conclusion)” value ([2]; high dose of Embodiment 3, Paroxetine) was “decreased the time of non-movement”. It also gave an immobility time ([2]; table title: time of non-movement in swimming by compulsion, Paroxetine 3 mg/kg P.O. for 7 days, 25° C. water, last 5 minutes, X±SD) of 83.4 ± 40.7 s.
